Data as given in EPA's ToxRefDB 2.

How the values were obtained:
dog [1] = conditions: Chronic toxicity; beagle; Oral; Feed; dose end: 1 year; group: systemic; systemic / organ weight / kidney / absolute + systemic / pathology gross / liver / enlarged + systemic / pathology microscopic / epididymis…
mouse [2] = conditions: Carcinogenicity, cd1, Oral, Feed, dose end: 18 month, group: systemic
rat [3] = conditions: Subchronic oral toxicity in rodents, other, Feed, dose end: 90 day, group: systemic
rat [4] = conditions: Combined chronic toxicity/carcinogenicity, sprague dawley, Oral, Feed, dose end: 2 year, group: systemic
rat [5] = conditions: Multigenerational reproductive toxicity study, other, Oral, Feed, dose end: 2 generation
dog [6] = conditions: Subchronic oral toxicity in nonrodent, beagle, Feed, dose end: 90 day, group: systemic
rat [7] = conditions: Subchronic oral toxicity in rodents, fischer, Feed, dose end: 13 week, group: systemic
mouse [8] = conditions: Subchronic oral toxicity in rodents, b6c3f1, Feed, dose end: 13 week, group: systemic
mouse [9] = conditions: Sub-acute repeat dose toxicity, b6c3f1, Oral, Feed, dose end: 14 day, group: systemic
mouse [10] = conditions: Carcinogenicity, b6c3f1, Oral, Feed, dose end: 103 week, group: systemic
rat [11] = conditions: Carcinogenicity; fischer; Oral; Feed; dose end: 103 week; group: systemic; systemic / in life observation / body weight / body weight
rat [12] = conditions: Sub-acute repeat dose toxicity, fischer, Oral, Feed, dose end: 14 day, group: systemic
rat [13] = conditions: Subchronic oral toxicity in rodents, sprague dawley, Feed, dose end: 90 day, group: systemic, systemic / clinical chemistry / alkaline phosphatase (alp/alk) / alkaline phosphatase (alp/alk) + systemic / hematology / mean corpuscular …
rat [14] = conditions: Combined chronic toxicity/carcinogenicity, sprague dawley, Oral, Feed, dose end: 24 month, group: systemic
rat [15] = conditions: Prenatal developmental toxicity study, sprague dawley, Oral, Gavage/Intubation, dose end: 15 GD
dog [16] = conditions: Chronic toxicity, beagle, Oral, Feed, dose end: 1 year, group: systemic
dog [17] = conditions: Subchronic oral toxicity in nonrodent, beagle, Feed, dose end: 90 day, group: systemic; remark: listed apart in the source
[18] = systemic / in life observation / body weight / body weight + systemic / pathology microscopic / stomach / cyst + systemic / pathology …
[19] = systemic / clinical chemistry / alanine aminotransferase (alt/sgpt) / alanine aminotransferase (alt/sgpt) + systemic / clinical chemistry / …
[20] = systemic / in life observation / body weight / body weight gain
[21] = systemic / in life observation / body weight / body weight gain + systemic / organ weight / liver / relative to body weight + systemic / …
[22] = group: offspring, systemic / in life observation / body weight / offspring (pup) weight + systemic / in life observation / clinical signs / reduced body size
[23] = group: parental, systemic / in life observation / body weight / body weight gain
[24] = group: reproductive, reproductive / reproductive performance / gestational length / gestational length
[25] = systemic / urinalysis / specific gravity/osmolality / specific gravity/osmolality + systemic / urinalysis / volume / volume
[26] = systemic / in life observation / body weight / body weight gain + systemic / in life observation / body weight / body weight
[27] = systemic / in life observation / body weight / body weight
[28] = systemic / in life observation / body weight / body weight + systemic / in life observation / food consumption / food consumption + systemic…
[29] = systemic / in life observation / body weight / body weight + systemic / pathology microscopic / liver / adenoma/carcinoma combined + …
[30] = systemic / in life observation / body weight / body weight gain + systemic / in life observation / food consumption / food consumption + …
[31] = systemic / clinical chemistry / gamma glutamyl transferase (ggt) / gamma glutamyl transferase (ggt) + systemic / organ weight / kidney / …
[32] = systemic / hematology / anemia / anemia - hemolytic + systemic / hematology / erythrocyte (rbc) count differential / erythrocyte (rbc) + …
[33] = group: developmental, developmental / developmental malformation / bone / supernumerary + developmental / developmental malformation / bone / unossified
[34] = group: maternal, systemic / in life observation / body weight / body weight gain + systemic / in life observation / clinical signs / salivation + systemic / …
[35] = systemic / pathology microscopic / liver / hyperplasia + systemic / pathology microscopic / liver / hypertrophy + systemic / clinical …
[36] = systemic / in life observation / body weight / body weight gain + systemic / clinical chemistry / alanine aminotransferase (alt/sgpt) / …

**Q.** Which results are given for `CCS(=O)(=O)c1cccnc1S(=O)(=O)NC(=O)Nc1nc(OC)cc(OC)n1` [Rimsulfuron]?
**A.** LEL (dog [1]): 81.8 mg/kg/day; LOAEL (dog [1]): 81.8 mg/kg/day; NEL (dog [1]): 1.6 mg/kg/day; NOAEL (dog [1]): 1.6 mg/kg/day; LOAEL (mouse [2]; [18]): 1130 mg/kg/day; NEL (mouse [2]; [18]): 3.47 mg/kg/day; NOAEL (mouse [2]; [18]): 351 mg/kg/day; LEL (mouse [2]; systemic / pathology microscopic / testes / degeneration): 35.5 mg/kg/day; LEL (rat [3]; [19]): 3.35 mg/kg/day; NEL (rat [3]; [19]): < 3.35 mg/kg/day; NOAEL (rat [3]; [19]): 102 mg/kg/day; LOAEL (rat [3]; [20]): 495 mg/kg/day; LEL (rat [4]; systemic / clinical chemistry / alkaline phosphatase (alp/alk) / alkaline phosphatase (alp/alk)): 11.8 mg/kg/day; LOAEL (rat [4]; systemic / in life observation / body weight / body weight gain + systemic / organ weight / liver / relative to body weight): 121 mg/kg/day; NEL (rat [4]; [21]): 1 mg/kg/day; NOAEL (rat [4]; [21]): 11.8 mg/kg/day; LEL (rat [5]; [22]): 1320 mg/kg/day; LOAEL (rat [5]; [22]): 1320 mg/kg/day; NEL (rat [5]; [22]): 264 mg/kg/day; NOAEL (rat [5]; [22]): 264 mg/kg/day; LEL (rat [5]; [23]): 830 mg/kg/day; LOAEL (rat [5]; [23]): 830 mg/kg/day; NEL (rat [5]; [23]): 165 mg/kg/day; NOAEL (rat [5]; [23]): 165 mg/kg/day; LEL (rat [5]; [24]): 1020 mg/kg/day; LOAEL (rat [5]; [24]): > 1020 mg/kg/day; NEL (rat [5]; [24]): 204 mg/kg/day; NOAEL (rat [5]; [24]): ≥ 1020 mg/kg/day; LEL (dog [6]; [25]): 6.25 mg/kg/day; LOAEL (dog [6]; [25]): 125 mg/kg/day; NEL (dog [6]; [25]): < 6.25 mg/kg/day; NOAEL (dog [6]; systemic / urinalysis / specific gravity/osmolality / specific gravity/osmolality + systemic / urinalysis / volume / volume + systemic / …): 6.25 mg/kg/day

**Q.** What does the source list for `CCCCC(CC)COC(=O)CCCCC(=O)OCC(CC)CCCC` (stereo not given) [Di(2-ethylhexyl) adipate]?
**A.** LEL (rat [7]; [20]): 625 mg/kg/day; LOAEL (rat [7]; [20]): 625 mg/kg/day; NEL (rat [7]; [26]): 315 mg/kg/day; NOAEL (rat [7]; [26]): 315 mg/kg/day; LEL (mouse [8]; [20]): 465 mg/kg/day; LOAEL (mouse [8]; [26]): > 3750 mg/kg/day; NEL (mouse [8]; [26]): 240 mg/kg/day; NOAEL (mouse [8]; [26]): ≥ 3750 mg/kg/day; LEL (mouse [9]; [27]): 3750 mg/kg/day; LOAEL (mouse [9]; [27]): 7500 mg/kg/day; NEL (mouse [9]; [28]): 1880 mg/kg/day; NOAEL (mouse [9]; [28]): 3750 mg/kg/day; LOAEL (mouse [10]; [27]): 1800 mg/kg/day; NOAEL (mouse [10]; [27]): < 1800 mg/kg/day; LEL (mouse [10]; [29]): 1800 mg/kg/day; NEL (mouse [10]; [29]): < 1800 mg/kg/day; LEL (rat [11]): 1250 mg/kg/day; LOAEL (rat [11]): 1250 mg/kg/day; NEL (rat [11]): 600 mg/kg/day; NOAEL (rat [11]): 600 mg/kg/day; LEL (rat [12]; [20]): 1250 mg/kg/day; LOAEL (rat [12]; [20]): 2500 mg/kg/day; NEL (rat [12]; [30]): 625 mg/kg/day; NOAEL (rat [12]; [30]): 1250 mg/kg/day

**Q.** Which LEL (rat [13]) does the source give for `COC(=O)c1c(C(F)F)nc(C(F)(F)F)c(C2=NCCS2)c1CC(C)C` [Thiazopyr] here?
**A.** 68 mg/kg/day

**Q.** What about the LOAEL (rat [13]) of the same compound?
**A.** 68 mg/kg/day

**Q.** What about the NEL (rat [13]) of the same compound?
**A.** 6.6 mg/kg/day

**Q.** And the NOAEL (rat [13])?
**A.** 6.6 mg/kg/day

**Q.** What about the LOAEL (rat [14]; [31]) of the same compound?
**A.** 44.2 mg/kg/day

**Q.** What about the NOAEL (rat [14]; [31]) of the same compound?
**A.** 4.4 mg/kg/day

**Q.** What about the LEL (rat [14]; [32]) of the same compound?
**A.** 5.6 mg/kg/day

**Q.** What about the NEL (rat [14]; [32]) of the same compound?
**A.** 0.6 mg/kg/day

**Q.** What about the LEL (rat [15]; [33]) of the same compound?
**A.** 250 mg/kg/day

**Q.** And the LOAEL (rat [15]; [33])?
**A.** 250 mg/kg/day

**Q.** What about the NEL (rat [15]; [33]) of the same compound?
**A.** 100 mg/kg/day

**Q.** And the NOAEL (rat [15]; [33])?
**A.** 100 mg/kg/day

**Q.** What about the LOAEL (rat [15]; [34]) of the same compound?
**A.** 250 mg/kg/day

**Q.** And the NEL (rat [15]; [34])?
**A.** 10 mg/kg/day

**Q.** And the NOAEL (rat [15]; [34])?
**A.** 100 mg/kg/day

**Q.** What about the LEL (rat [15]; group: maternal, systemic / organ weight / liver / nos) of the same compound?
**A.** 100 mg/kg/day

**Q.** And the LOAEL (dog [16]; systemic / pathology microscopic / liver / hyperplasia + systemic / pathology microscopic / liver / hypertrophy)?
**A.** 7.8 mg/kg/day

**Q.** And the LEL (dog [16]; [35])?
**A.** 7.8 mg/kg/day

**Q.** What about the NEL (dog [16]; [35]) of the same compound?
**A.** 0.8 mg/kg/day

**Q.** What about the NOAEL (dog [16]; [35]) of the same compound?
**A.** 0.8 mg/kg/day

**Q.** What about the LOAEL (dog [17]; [20]) of the same compound?
**A.** 3 mg/kg/day

**Q.** And the NEL (dog [17]; [36])?
**A.** 2 mg/kg/day

**Q.** And the NOAEL (dog [17]; [36])?
**A.** 2 mg/kg/day

**Q.** What about the LEL (dog [17]; systemic / in life observation / body weight / body weight gain + systemic / clinical chemistry / albumin-globulin ratio / albumin-globulin …) of the same compound?
**A.** 3 mg/kg/day
